Data on one molecule can be found in patent US12064759B2, “Microfluidic device with embedded cell culture chambers for high throughput biological assays” (NUtech Ventures, priority 2020, dated 2024).

Assay [1] concerns A431 cells. As to the kind of experiment: Multi-well (static culture) Dox study on A431 cells, live/dead assay. Type of assay: cell-based. The following applies: Dox 0, 6, 12, 18, 24 and 30 μg/ml; device flow rate 0.05 μl/min.
Description: Viability data with DMEM/Dox at the inlets at a flow rate of 0.05 μl/ml was compared with Dox treatment of A431 cells in static culture. A lower flow rate was chosen to minimize the effect of the shear stress on cell detachment and cell death. […] Cell viabilities data was collected by counting cells stained green and red from these chambers. According to simulation data, the concentration of Dox in the chambers 13 through 18 are: 0 μg/ml, 6 μg/ml, 12 μg/ml, 18 μg/ml, 24 μg/ml and 30 μg/ml. These dosages were applied in static culture and the viability data were collected. […] Doxorubicin hydrochloride 98.0-102.0% (HPLC) with molecular weight of 579.98 was dissolved in water and was diluted in DMEM media. For A431 cells, live-dead staining kit was diluted with PBS and was continuously flowed into the chambers with cells for 2 hours. Live-dead kit contains, Calcein-AM which stains green to the cytoskeleton of live cells and ethidium homodimer which stains red to the nuclei of dead cells. Cells were then counted with ImageJ cell counter module. Viability of the cells was calculated as the ratio of the live cells (stained green) over the total number of the cell, summation of the live (green) and dead (red) cells within each chamber.
For assay [2], the system named is A431 cells. As to the kind of experiment: Drug screening with live/dead assay on A431 cells in the MECT microfluidic device. It is filed as cell-based. As to the method:
Taking advantage of the ability of the MECT device in generating uniform gradient within each chamber, a drug screening study with A431 cells administrated with control media and Dox was performed. Five conditions were studied: (1) Cells were stained with live/dead assay 24 hours after seeding without any media flow. This serves as the control; (2) cells were perfused by DMEM from both inlets for 12 hours before live/dead staining. This experiment examined the effect of shear stress on cell viability; (3, 4, 5) cells were perfused for 12 hours with DMEM/Dox (at a concentration of 30 μg/ml) from the bottom inlet and DMEM from the top inlet at flow rates of 0.05 μl/min (3), 0.1 μl/min (4) and 0.2 μl/min (5) for both inlets. Representative images for the studies of condition 1, 2, 4 and 5 are shown in FIGS. 6a-6d and of condition 3 in FIG. 7a. These studies were performed after the cells had been seeded within the microchambers for 24 hours. […] This provided clear evidence that cells within each chamber were viable and the device works properly. The effect of shear stress was then examined by perfusion of both inlets with a control media, Dulbecco's Modified Eagle Medium (DMEM) at a flow rate of 0.1 μl/min. Overall a slightly lower cell viability, at an average of 88%, was observed due to the shear induced cell death (FIG. 6b). In addition, the cell viability increased from the columns closest to the inlet of the device to the columns closes to the outlets, in agreement with COMSOL simulation where the shear stress is higher in the columns close to the inlets (FIG. 5).
As discussed in microchannel fabrication, PDMS with ratio 1:10 were used to fabricate the microchannel and it was bonded to glass-slides and cured for 30 min at 80° C. inside the oven. Human fibronectin protein (Thermofisher) with the concentration of 50 μg/ml was used to coat the surface of the glass-slide as the bottom layer of the microchannels. Fibronectin was flowed into the microchannels by syringes and incubated for 2 hours. The fibronectin coated microchannel was washed with PBS. A mixture of the cell and DMEM was flowed into the microchannel by syringe pump at a flow rate (30 μl/min). The concentration of cell mixture was about 10 million cells per ml of media. Cell attachment and proliferation inside the microchannel was reached by placing the microchannel inside the incubator for 24 hours.
Doxorubicin hydrochloride 98.0-102.0% (HPLC) with molecular weight of 579.98 was dissolved in water and was diluted in DMEM media. […] Cells were then counted with ImageJ cell counter module. Viability of the cells was calculated as the ratio of the live cells (stained green) over the total number of the cell, summation of the live (green) and dead (red) cells within each chamber.

Where a name gives a salt, the structure may show the parent alone.

As to `COc1cccc2c1C(=O)c1c(O)c3c(c(O)c1C2=O)C[C@@](O)(C(=O)CO)C[C@@H]3O[C@H]1C[C@H](N)[C@H](O)[C@H](C)O1` [Dox, Doxorubicin hydrochloride], in the assay on A431 cells [1], the “cell viability in static culture compared with device chambers #13 through #18” value is “reasonable agreement”. Also, the “overall cell viability in condition 5 (0.2 μl/min DMEM/Dox) versus condition 4 (0.1 μl/min DMEM/Dox)” value in the assay on A431 cells [2] (12 h, Dox 30 μg/ml, higher shear stress at higher flow rate) is “clearly lower”. In addition, the “cell viability from chambers #13 to #18” value in the assay with A431 cells [2] (12 h DMEM/Dox 30 μg/ml, flow rates 0.05, 0.1 and 0.2 μl/min (conditions 3 through 5)) is given as “overall decline”. Further, the “cell viability from top chamber to bottom chamber of each column (lowest to highest Dox concentration)” value in the assay on A431 cells [2] (12 h perfusion, DMEM top inlet, DMEM/Dox 30 μg/ml bottom inlet, flow rates 0.1 and 0.2 μl/min) is “decreased significantly”. Besides, in the assay with A431 cells [2] (doxorubicin flowed into chambers at different flow rate), the “effect of increasing doxorubicin concentrations within chambers on skin cancer cells” value was “induces cell death”.
